Broadly, the EC50 is the concentration giving half of the maximal effect.

The structures appear in SMILES notation.

The assay has as its system recombinant NL4-3 virus (Renilla luciferase in nef, Gag P373S). Put plainly: HIV cell culture assay (luciferase reporter virus in MT-2 cells). The assay is classed as cell-based. The note with it: NL43. On the procedure:
HIV cell culture assay—MT-2 cells and 293T cells were obtained from the NIH AIDS Research and Reference Reagent Program. MT-2 cells were propagated in RPMI 1640 media supplemented with 10% heat inactivated fetal bovine serum, […]. The 293T cells were propagated in DMEM media supplemented with 10% heat inactivated fetal bovine serum (FBS), 100 units/ml penicillin G and 100 μg/ml streptomycin. The proviral DNA clone of NL4-3 was obtained from the NIH AIDS Research and Reference Reagent Program. A recombinant NL4-3 virus, in which a section of the nef gene from NL4-3 was replaced with the Renilla luciferase gene, was used as a reference virus. In addition, residue Gag P373 was converted to P373S. Briefly, the recombinant virus was prepared by transfection of the altered proviral clone of NL4-3. Transfections were performed in 293T cells using LipofectAMINE PLUS from Invitrogen (Carlsbad, Calif.), according to manufacturer's instruction. The virus was titered in MT-2 cells using luciferase enzyme activity as a marker. Luciferase was quantitated using the Dual Luciferase kit from Promega (Madison, Wis.), with modifications to the manufacturer's protocol. The diluted Passive Lysis solution was pre-mixed with the re-suspended Luciferase Assay Reagent and the re-suspended Stop & Glo Substrate (2:1:1 ratio). Fifty (50) μL of the mixture was added to each aspirated well on assay plates and luciferase activity was measured immediately on a Wallac TriLux (Perkin-Elmer). Antiviral activities of inhibitors toward the recombinant virus were quantified by measuring luciferase activity in cells infected for 4-5 days with NLRluc recombinants in the presence serial dilutions of the inhibitor. Table 1 is the key for the data in Table 2.
Regarding `C=C(C)[C@@H]1CC[C@]2(C(=O)OC)CC[C@]3(C)[C@H](CC[C@@H]4[C@@]5(C)CC=C(c6cccc(C(=O)O)c6)C(C)(C)[C@@H]5CC[C@]43C)[C@@H]12` [Example 1a, 3-((1R,3aS,5aR,5bR,7aR,11aS,13aR,13bR)-3a-(methoxycarbonyl)-5a,5b,8,8,11a-pentamethyl-1-(prop-1-en-2-yl)-2,3,3a,4,5,5a,5b,6,7,7a,8,11,11a,11b,12,13,13a,13b-octadecahydro-1H-cyclopenta[a]chrysen-9-yl)benzoic acid], the EC50 was more than 1 µM.

`C=C(C)[C@@H]1CC[C@]2(C(=O)OC)CC[C@]3(C)[C@H](CC[C@@H]4[C@@]5(C)CC=C(c6ccc(C(=O)O)cc6)C(C)(C)[C@@H]5CC[C@]43C)[C@@H]12` [Example 1b, 4-((1R,3aS,5aR,5bR,7aR,11aS,13aR,13bR)-3a-(methoxycarbonyl)-5a,5b,8,8,11a-pentamethyl-1-(prop-1-en-2-yl)-2,3,3a,4,5,5a,5b,6,7,7a,8,11,11a,11b,12,13,13a,13b-octadecahydro-1H-cyclopenta[a]chrysen-9-yl)benzoic acid]: the EC50 was less than 1 µM.

With `C=C(C)[C@@H]1CC[C@]2(C(=O)O)CC[C@]3(C)[C@H](CC[C@@H]4[C@@]5(C)CC=C(c6cccc(C(=O)O)c6)C(C)(C)[C@@H]5CC[C@]43C)[C@@H]12` [Example 2a, (1R,3aS,5aR,5bR,7aR,11aS,13aR,13bR)-9-(3-carboxyphenyl)-5a,5b,8,8,11a-pentamethyl-1-(prop-1-en-2-yl)-2,3,3a,4,5,5a,5b,6,7,7a,8,11,11a,11b,12,13,13a,13b-octadecahydro-1H-cyclopenta[a]chrysene-3a-carboxylic acid], the EC50 was more than 1 µM.

`C=C(C)[C@@H]1CC[C@]2(C(=O)O)CC[C@]3(C)[C@H](CC[C@@H]4[C@@]5(C)CC=C(c6ccc(C(=O)O)cc6)C(C)(C)[C@@H]5CC[C@]43C)[C@@H]12` [Example 2b, (1R,3aS,5aR,5bR,7aR,11aS,13aR,13bR)-9-(4-carboxyphenyl)-5a,5b,8,8,11a-pentamethyl-1-(prop-1-en-2-yl)-2,3,3a,4,5,5a,5b,6,7,7a,8,11,11a,11b,12,13,13a,13b-octadecahydro-1H-cyclopenta[a]chrysene-3a-carboxylic acid]: the concentration giving a half-maximal response (EC50) was less than 1 µM.

Turning to `CC(C)[C@@H]1CC[C@]2(C(=O)O)CC[C@]3(C)[C@H](CC[C@@H]4[C@@]5(C)CC[C@H](c6cccc(C(=O)O)c6)C(C)(C)[C@@H]5CC[C@]43C)[C@@H]12` [Example 3a, (3aS,5aR,5bR,7aS,9S,11aS,13aR,13bR)-9-(3-carboxyphenyl)-1-isopropyl-5a,5b,8,8,11a-pentamethylicosahydro-1H-cyclopenta[a]chrysene-3a-carboxylic acid], the EC50 turned out to be 2 µM.

For `CC(C)[C@@H]1CC[C@]2(C(=O)O)CC[C@]3(C)[C@H](CC[C@@H]4[C@@]5(C)CC[C@H](c6ccc(C(=O)O)cc6)C(C)(C)[C@@H]5CC[C@]43C)[C@@H]12` [Example 3b, (1S,3aS,5aR,5bR,7aS,9S,11aS,11bR,13aR,13bR)-9-(4-carboxyphenyl)-1-isopropyl-5a,5b,8,8,11a-pentamethylicosahydro-1H-cyclopenta[a]chrysene-3a-carboxylic acid], the EC50 was less than 1 µM.

For `C=C(C)[C@@H]1CC[C@]2(C(=O)O)CC[C@]3(C)[C@H](CC[C@@H]4[C@@]5(C)CC=C(c6ccc(CCC(=O)O)cc6)C(C)(C)[C@@H]5CC[C@]43C)[C@@H]12` [Example 4a, (1R,3aS,5aR,5bR,7aR,11aS,11bR,13aR,13bR)-9-(4-(2-carboxyethyl)phenyl)-5a,5b,8,8,11a-pentamethyl-1-(prop-1-en-2-yl)-2,3,3a,4,5,5a,5b,6,7,7a,8,11,11a,11b,12,13,13a,13b-octadecahydro-1H-cyclopenta[a]chrysene-3a-carboxylic acid], the EC50 is less than 1 µM.

As for `C=C(C)[C@@H]1CC[C@]2(C(=O)O)CC[C@]3(C)[C@H](CC[C@@H]4[C@@]5(C)CC=C(c6ccc(NC(=O)CCC(=O)O)cc6)C(C)(C)[C@@H]5CC[C@]43C)[C@@H]12` [Example 4b, (1R,3aS,5aR,5bR,7aR,11aS,11bR,13aR,13bR)-9-(4-(3-carboxypropanamido)phenyl)-5a,5b,8,8,11a-pentamethyl-1-(prop-1-en-2-yl)-2,3,3a,4,5,5a,5b,6,7,7a,8,11,11a,11b,12,13,13a,13b-octadecahydro-1H-cyclopenta[a]chrysene-3a-carboxylic acid], the EC50 was more than 1 µM.

On to `C=C(C)[C@@H]1CC[C@]2(C(=O)O)CC[C@]3(C)[C@H](CC[C@@H]4[C@@]5(C)CC=C(c6ccc(C7(C(=O)O)CC7)cc6)C(C)(C)[C@@H]5CC[C@]43C)[C@@H]12` [Example 4c, (1R,3aS,5aR,5bR,7aR,11aS,11bR,13aR,13bR)-9-(4-(1-carboxycyclopropyl)phenyl)-5a,5b,8,8,11a-pentamethyl-1-(prop-1-en-2-yl)-2,3,3a,4,5,5a,5b,6,7,7a,8,11,11a,11b,12,13,13a,13b-octadecahydro-1H-cyclopenta[a]chrysene-3a-carboxylic acid], for which the EC50 was less than 1 µM.

As to `C=C(C)[C@@H]1CC[C@]2(C(=O)O)CC[C@]3(C)[C@H](CC[C@@H]4[C@@]5(C)CC=C(c6ccc(C(=O)O)c(F)c6)C(C)(C)[C@@H]5CC[C@]43C)[C@@H]12` [Example 4d, (1R,3aS,5aR,5bR,7aR,11aS,11bR,13aR,13bR)-9-(4-carboxy-3-fluorophenyl)-5a,5b,8,8,11a-pentamethyl-1-(prop-1-en-2-yl)-2,3,3a,4,5,5a,5b,6,7,7a,8,11,11a,11b,12,13,13a,13b-octadecahydro-1H-cyclopenta[a]chrysene-3a-carboxylic acid], the EC50 was less than 1 µM.

On to `C=C(C)[C@@H]1CC[C@]2(C(=O)O)CC[C@]3(C)[C@H](CC[C@@H]4[C@@]5(C)CC=C(c6cccc(S(=O)(=O)NC)c6)C(C)(C)[C@@H]5CC[C@]43C)[C@@H]12` [Example 4e, (1R,3aS,5aR,5bR,7aR,11aS,11bR,13aR,13bR)-5a,5b,8,8,11a-pentamethyl-9-(3-(N-methylsulfamoyl)phenyl)-1-(prop-1-en-2-yl)-2,3,3a,4,5,5a,5b,6,7,7a,8,11,11a,11b,12,13,13a,13b-octadecahydro-1H-cyclopenta[a]chrysene-3a-carboxylic acid], for which the EC50 is less than 1 µM.

As for `C=C(C)[C@@H]1CC[C@]2(C(=O)O)CC[C@]3(C)[C@H](CC[C@@H]4[C@@]5(C)CC=C(c6ccc(O)cc6)C(C)(C)[C@@H]5CC[C@]43C)[C@@H]12` [Example 4f, (1R,3aS,5aR,5bR,7aR,11aS,11bR,13aR,13bR)-9-(4-hydroxyphenyl)-5a,5b,8,8,11a-pentamethyl-1-(prop-1-en-2-yl)-2,3,3a,4,5,5a,5b,6,7,7a,8,11,11a, 11b,12,13,13a,13b-octadecahydro-1H-cyclopenta[a]chrysene-3a-carboxylic acid], the EC50 was less than 1 µM.

For the compound `C=C(C)[C@@H]1CC[C@]2(C(=O)O)CC[C@]3(C)[C@H](CC[C@@H]4[C@@]5(C)CC=C(c6cccc(NS(C)(=O)=O)c6)C(C)(C)[C@@H]5CC[C@]43C)[C@@H]12` [Example 4g, (1R,3aS,5aR,5bR,7aR,11aS,11bR,13aR,13bR)-5a,5b,8,8,11a-pentamethyl-9-(3-(methylsulfonamido)phenyl)-1-(prop-1-en-2-yl)-2,3,3a,4,5,5a,5b,6,7,7a,8,11,11a,11b,12,13,13a,13b-octadecahydro-1H-cyclopenta[a]chrysene-3a-carboxylic acid], the 50% effective concentration (EC50) was more than 1 µM.

For the compound `C=C(C)[C@@H]1CC[C@]2(C(=O)O)CC[C@]3(C)[C@H](CC[C@@H]4[C@@]5(C)CC=C(c6ccc(/C=C/C(=O)O)cc6)C(C)(C)[C@@H]5CC[C@]43C)[C@@H]12` [Example 4h, (1R,3aS,5aR,5bR,7aR,11aS,11bR,13aR,13bR)-9-(4-((E)-2-carboxyvinyl)phenyl)-5a,5b,8,8,11a-pentamethyl-1-(prop-1-en-2-yl)-2,3,3a,4,5,5a,5b,6,7,7a,8,11,11a,11b,12,13,13a,13b-octadecahydro-1H-cyclopenta[a]chrysene-3a-carboxylic acid], the EC50 was less than 1 µM.

As for `C=C(C)[C@@H]1CC[C@]2(C(=O)O)CC[C@]3(C)[C@H](CC[C@@H]4[C@@]5(C)CC=C(c6cccc(-c7nn[nH]n7)c6)C(C)(C)[C@@H]5CC[C@]43C)[C@@H]12` [Example 4i, (1R,3aS,5aR,5bR,7aR,11aS,11bR,13aR,13bR)-9-(3-(2H-tetrazol-5-yl)phenyl)-5a,5b,8,8,11a-pentamethyl-1-(prop-1-en-2-yl)-2,3,3a,4,5,5a,5b,6,7,7a,8,11,11a,11b,12,13,13a,13b-octadecahydro-1H-cyclopenta[a]chrysene-3a-carboxylic acid], the EC50 was more than 1 µM.

These data come from patent publication US8754068B2, “Modified C-3 betulinic acid derivatives as HIV maturation inhibitors” (priority 2010, dated 2014).
